“And” between values parts separate entries of the source, which are not always exact repeats. Identical values can stand only once. “Also recorded” adds a separate entry of the source.
Key:
diaphorase [1] = test: Formation of formazan dyes: NADH and diaphorase, absence of malate (TABLE 7); format: biochemical, Clostridium kluyveri; conditions: NADH and diaphorase, absence of malate
diaphorase [2] = test: Formation of formazan dyes: NADH, diaphorase and malate (TABLE 8); format: biochemical, Clostridium kluyveri; conditions: NADH, diaphorase and malate
[3] = tested on: Malate dehydrogenase and diaphorase; test: Formation of formazan dyes: Malate dehydrogenase and diaphorase, absence of malate (TABLE 9); format: biochemical, pig heart
[4] = tested on: Malate dehydrogenase and diaphorase; test: Formation of formazan dyes: Malate dehydrogenase, diaphorase and malate (TABLE 10); format: biochemical, pig heart
oral lavage [5] = test: Formation of formazan dyes: oral lavage and diaphorase, not malate (TABLE 11); format: biochemical, human
oral lavage [6] = test: Formation of formazan dyes: oral lavage, malate and diaphorase (TABLE 12); format: biochemical, human; conditions: oral lavage, malate and diaphorase
diaphorase [7] = test: Formation of formazan dyes: only diaphorase, not malate (TABLE 13); format: biochemical, Clostridium kluyveri; conditions: mean of three experiments
diaphorase [8] = test: Formation of formazan dyes: only diaphorase and malate (TABLE 14); format: biochemical, Clostridium kluyveri; conditions: mean of three experiments
[9] = Formation of formazan dyes: NADH and 1-methoxy PMS, absence of malate (TABLE 15); format: biochemical
[10] = Formation of formazan dyes: NADH, malate and 1-methoxy PMS (TABLE 16); format: biochemical
oral lavage [11] = test: Formation of formazan dyes: oral lavage and 1-Methoxy PMS, absence of malate (TABLE 19); format: biochemical, human
[12] = Formation of formazan dyes: control buffer and 1-Methoxy PMS, absence of malate (TABLE 21); format: biochemical
[13] = Formation of formazan dyes: control buffer, malate and 1-Methoxy PMS (TABLE 22); format: biochemical
Malate dehydrogenase = target: T1, Malate dehydrogenase (Sus scrofa, UniProt P00346); test: Formation of formazan dyes: Malate dehydrogenase and 1-Methoxy PMS, absence of malate (TABLE 17); format: biochemical, pig heart; parameters: L-malate dehydrogenase (pig heart); purchased Sigma-Aldrich 10127248001 / 10127914001
T1 sequence (P00346 25-338): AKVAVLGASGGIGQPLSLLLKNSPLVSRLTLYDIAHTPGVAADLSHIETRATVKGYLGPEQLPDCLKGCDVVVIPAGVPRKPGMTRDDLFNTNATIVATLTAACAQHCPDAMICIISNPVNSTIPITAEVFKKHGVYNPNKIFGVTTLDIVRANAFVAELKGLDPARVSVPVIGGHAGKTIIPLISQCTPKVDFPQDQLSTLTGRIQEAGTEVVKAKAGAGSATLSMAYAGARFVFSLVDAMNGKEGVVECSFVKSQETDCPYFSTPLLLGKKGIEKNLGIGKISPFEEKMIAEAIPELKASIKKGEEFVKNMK

Substance: 2-Benzothiazoryl-3-(4-carboxy-2-methoxyphenyl)-5-[4-(2-sulfoethylcarbamoyl)phenyl]-2H-tetrazolium [WST-4]
- Formation of formazan dyes, absorbance, Means 0 h (diaphorase [1]; 0 h): 1.96
- Formation of formazan dyes, absorbance, Means 1 h (diaphorase [1]; 1 h): 2.01
- Formation of formazan dyes, absorbance, Means 2 h (diaphorase [1]; 2 h): 2.04
- Formation of formazan dyes, absorbance, Means 3 h (diaphorase [1]; 3 h): 2.08
- Formation of formazan dyes, absorbance, Means 4 h (diaphorase [1]; 4 h): 2.20
- Formation of formazan dyes, absorbance, Means 6 h (diaphorase [1]; 6 h): 2.25
- Formation of formazan dyes, absorbance, Means 8 h (diaphorase [1]; 8 h): 2.29
- Formation of formazan dyes, absorbance, Means 10 h (diaphorase [1]; 10 h): 2.30
- Formation of formazan dyes, absorbance, Means 12 h (diaphorase [1]; 12 h): 2.32
- Formation of formazan dyes, absorbance, Means 0 h (diaphorase [2]; 0 h): 1.92
- Formation of formazan dyes, absorbance, Means 1 h (diaphorase [2]; 1 h): 1.91
- Formation of formazan dyes, absorbance, Means 2 h (diaphorase [2]; 2 h): 1.91
- Formation of formazan dyes, absorbance, Means 3 h (diaphorase [2]; 3 h): 1.89
- Formation of formazan dyes, absorbance, Means 4 h (diaphorase [2]; 4 h): 1.97
- Formation of formazan dyes, absorbance, Means 6 h (diaphorase [2]; 6 h): 1.94
- Formation of formazan dyes, absorbance, Means 8 h (diaphorase [2]; 8 h): 1.92
- Formation of formazan dyes, absorbance, Means 10 h (diaphorase [2]; 10 h): 1.88
- Formation of formazan dyes, absorbance, Means 12 h (diaphorase [2]; 12 h): 1.83
- Formation of formazan dyes, absorbance, Means 0 h ([3]; Malate dehydrogenase and diaphorase, absence of malate, 0 h): 0.51
- Formation of formazan dyes, absorbance, Means 1 h ([3]; Malate dehydrogenase and diaphorase, absence of malate, 1 h): 0.83
- Formation of formazan dyes, absorbance, Means 2 h ([3]; Malate dehydrogenase and diaphorase, absence of malate, 2 h): 0.99
- Formation of formazan dyes, absorbance, Means 3 h ([3]; Malate dehydrogenase and diaphorase, absence of malate, 3 h): 1.06
- Formation of formazan dyes, absorbance, Means 4 h ([3]; Malate dehydrogenase and diaphorase, absence of malate, 4 h): 1.17
- Formation of formazan dyes, absorbance, Means 6 h ([3]; Malate dehydrogenase and diaphorase, absence of malate, 6 h): 1.24
- Formation of formazan dyes, absorbance, Means 8 h ([3]; Malate dehydrogenase and diaphorase, absence of malate, 8 h): 1.35
- Formation of formazan dyes, absorbance, Means 10 h ([3]; Malate dehydrogenase and diaphorase, absence of malate, 10 h): 1.44
- Formation of formazan dyes, absorbance, Means 12 h ([3]; Malate dehydrogenase and diaphorase, absence of malate, 12 h): 1.47
- reduction of tetrazolium dye in the absence of substrate malate ([3]; malate dehydrogenase and diaphorase (TABLE 9)): partially reduced
- Formation of formazan dyes, absorbance, Means 0 h ([4]; Malate dehydrogenase, diaphorase and malate, 0 h): 0.51
- Formation of formazan dyes, absorbance, Means 1 h ([4]; Malate dehydrogenase, diaphorase and malate, 1 h): 0.81
- Formation of formazan dyes, absorbance, Means 2 h ([4]; Malate dehydrogenase, diaphorase and malate, 2 h): 0.99
- Formation of formazan dyes, absorbance, Means 3 h ([4]; Malate dehydrogenase, diaphorase and malate, 3 h): 1.13
- Formation of formazan dyes, absorbance, Means 4 h ([4]; Malate dehydrogenase, diaphorase and malate, 4 h): 1.25
- Formation of formazan dyes, absorbance, Means 6 h ([4]; Malate dehydrogenase, diaphorase and malate, 6 h): 1.43
- Formation of formazan dyes, absorbance, Means 8 h ([4]; Malate dehydrogenase, diaphorase and malate, 8 h): 1.57
- Formation of formazan dyes, absorbance, Means 10 h ([4]; Malate dehydrogenase, diaphorase and malate, 10 h): 1.68
- Formation of formazan dyes, absorbance, Means 12 h ([4]; Malate dehydrogenase, diaphorase and malate, 12 h): 1.75
- conversion to reduced formazan dyes ([4]; malate dehydrogenase, diaphorase and malate (TABLE 10)): converted to reduced formazan dyes in a time-dependent fashion; also recorded: able to catalyze the reduction
- Formation of formazan dyes, absorbance, Means 0 h (oral lavage [5]; oral lavage and diaphorase, not malate, 0 h): 0.55
- Formation of formazan dyes, absorbance, Means 1 h (oral lavage [5]; oral lavage and diaphorase, not malate, 1 h): 0.74
- Formation of formazan dyes, absorbance, Means 2 h (oral lavage [5]; oral lavage and diaphorase, not malate, 2 h): 0.76
- Formation of formazan dyes, absorbance, Means 3 h (oral lavage [5]; oral lavage and diaphorase, not malate, 3 h): 0.80
- Formation of formazan dyes, absorbance, Means 4 h (oral lavage [5]; oral lavage and diaphorase, not malate, 4 h): 0.78
- Formation of formazan dyes, absorbance, Means 6 h (oral lavage [5]; oral lavage and diaphorase, not malate, 6 h): 0.88
- Formation of formazan dyes, absorbance, Means 8 h (oral lavage [5]; oral lavage and diaphorase, not malate, 8 h): 0.90
- Formation of formazan dyes, absorbance, Means 10 h (oral lavage [5]; oral lavage and diaphorase, not malate, 10 h): 0.87
- Formation of formazan dyes, absorbance, Means 12 h (oral lavage [5]; oral lavage and diaphorase, not malate, 12 h): 0.93
- reduction to formazan dyes by pooled oral lavage (oral lavage [5]; pooled oral lavage of high bleeder group, diaphorase, no added malate (TABLE 11)): partially reduced to formazan dyes
- Formation of formazan dyes, absorbance, Means 0 h (oral lavage [6]; 0 h): 0.44
- Formation of formazan dyes, absorbance, Means 1 h (oral lavage [6]; 1 h): 0.56
- Formation of formazan dyes, absorbance, Means 2 h (oral lavage [6]; 2 h): 0.63
- Formation of formazan dyes, absorbance, Means 3 h (oral lavage [6]; 3 h): 0.67
- Formation of formazan dyes, absorbance, Means 4 h (oral lavage [6]; 4 h): 0.77
- Formation of formazan dyes, absorbance, Means 6 h (oral lavage [6]; 6 h): 0.83
- Formation of formazan dyes, absorbance, Means 8 h (oral lavage [6]; 8 h): 0.89
- Formation of formazan dyes, absorbance, Means 10 h (oral lavage [6]; 10 h): 0.96
- Formation of formazan dyes, absorbance, Means 12 h (oral lavage [6]; 12 h): 0.95
- Absorbance, formation of formazan dyes (Means) (diaphorase [7]; 0 h): 0.22
- Absorbance, formation of formazan dyes (Means) (diaphorase [7]; 1 h): 0.35
- Absorbance, formation of formazan dyes (Means) (diaphorase [7]; 2 h): 0.40
- Absorbance, formation of formazan dyes (Means) (diaphorase [7]; 3 h): 0.40
- Absorbance, formation of formazan dyes (Means) (diaphorase [7]; 4 h): 0.38
- Absorbance, formation of formazan dyes (Means) (diaphorase [7]; 6 h): 0.30
- Absorbance, formation of formazan dyes (Means) (diaphorase [7]; 8 h): 0.32
- Absorbance, formation of formazan dyes (Means) (diaphorase [7]; 10 h): 0.36
- Absorbance, formation of formazan dyes (Means) (diaphorase [7]; 12 h): 0.39
- Absorbance, formation of formazan dyes (Means) (diaphorase [8]; 0 h): 0.08
- Absorbance, formation of formazan dyes (Means) (diaphorase [8]; 1 h): 0.10
- Absorbance, formation of formazan dyes (Means) (diaphorase [8]; 2 h): 0.12
- Absorbance, formation of formazan dyes (Means) (diaphorase [8]; 3 h): 0.14
- Absorbance, formation of formazan dyes (Means) (diaphorase [8]; 4 h): 0.16
- Absorbance, formation of formazan dyes (Means) (diaphorase [8]; 6 h): 0.19
- Absorbance, formation of formazan dyes (Means) (diaphorase [8]; 8 h): 0.23
- Absorbance, formation of formazan dyes (Means) (diaphorase [8]; 10 h): 0.26
- Absorbance, formation of formazan dyes (Means) (diaphorase [8]; 12 h): 0.27
- Absorbance, formation of formazan dyes (Means) [9]: 1.52 and 1.57 and 1.64
- Absorbance, formation of formazan dyes (Means) [10]: 1.32 and 1.31 and 1.29 and 1.30
- Absorbance, formation of formazan dyes (Means) (oral lavage [11]): 0.78 and 1.07 and 1.15 and 1.22
- Absorbance, formation of formazan dyes (Means) [12]: 0.30 and 0.34 and 0.43 and 0.44
- Means absorbance 0 h [13]: 0.13
- Means absorbance 1 h [13]: 0.13
- Means absorbance 2 h [13]: 0.13
- Means absorbance 3 h [13]: 0.15
- Absorbance, formation of formazan dyes (Means) (Malate dehydrogenase): 0.27 and 0.29 and 0.31 and 0.38
- reduction by malate dehydrogenase alone (Malate dehydrogenase): did not catalyze the reduction
